Target: Serine/threonine-protein kinase pim-2 (Homo sapiens, UniProt Q9P1W9)
Test: Inhibition of Pim2 kinase

Serine/threonine-protein kinase pim-2, sequence (Q9P1W9 whole entry): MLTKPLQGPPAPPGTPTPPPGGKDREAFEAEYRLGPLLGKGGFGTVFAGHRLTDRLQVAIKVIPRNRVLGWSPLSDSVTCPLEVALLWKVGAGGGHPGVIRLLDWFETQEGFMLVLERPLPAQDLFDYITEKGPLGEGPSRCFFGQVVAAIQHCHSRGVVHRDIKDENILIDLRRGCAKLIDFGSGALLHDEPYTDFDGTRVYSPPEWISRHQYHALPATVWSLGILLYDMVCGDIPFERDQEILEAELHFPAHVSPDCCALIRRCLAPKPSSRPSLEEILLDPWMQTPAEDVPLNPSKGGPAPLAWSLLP

| Compound | IC50 [µM] |
| --- | --- |
| NCCc1ccc(OC(=O)c2cc(O)c(O)c(O)c2)cc1 [GALLOYL TYRAMINE] | 161 |
| C[C@@H]1O[C@@H](Oc2c(-c3ccc(O)c(O)c3)oc3cc(O)cc(O)c3c2=O)[C@H](O)[C@H](O)[C@H]1O [QUERCITRIN] | 25 |

From ChEMBL document CHEMBL1144687, “Pim2 inhibitors from the Papua New Guinean plant Cupaniopsis macropetala” (J Nat Prod, 2008)
